This passage reports pest or weed control results from patent US20120100990A1, “4 -AMINOPICOLINATES AND THEIR USE AS HERBICIDES” (SYNGENTA CROP PROTECTION LLC, priority 2009, published 2012).

Common to all, as to type: in vivo
Experiment [1] deals with Amaranthus retroflexus (AMARE). Nature of the experiment: Pre-emergence biological efficacy, glasshouse pot test. Conditions: 312 h, 1,000 g/ha, evaluated after 13 days, 100=total damage, 0=no damage, read-out: Percentage damage caused to weed species, pre-emergence, AMARE. Summed up:
(§1)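 Visual 0–100 injury scale read 13 days post-spray. Dose 1000 or 250 g/ha, applied to soil one day after sowing, before emergence.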

Experiment [2] relates to Setaria faberi (SETFA). Described as above. The following applies: 312 h, 1,000 g/ha, evaluated after 13 days, 100=total damage, 0=no damage, read-out: Percentage damage caused to weed species, pre-emergence, SETFA. Summed up:
as §1

Experiment [3] concerns Echinochloa crus-galli (ECHCG). The description is as above. Conditions: 312 h, 1,000 g/ha, evaluated after 13 days, 100=total damage, 0=no damage, read-out: Percentage damage caused to weed species, pre-emergence, ECHCG. Summed up: as §1
Experiment [4] has as its system Alopecurus myosuroides (ALOMY). The experiment is described as above. Conditions: 312 h, 1,000 g/ha, evaluated after 13 days, 100=total damage, 0=no damage, read-out: Percentage damage caused to weed species, pre-emergence, ALOMY. Summed up:
as §1

Experiment [5] relates to Ipomea hederaceae (IPOHE). Described as above. Conditions: Ipomoea hederacea, 312 h, 1,000 g/ha, evaluated after 13 days, 100=total damage, 0=no damage, read-out: Percentage damage caused to weed species, pre-emergence, IPOHE. Summed up:
as §1

Experiment [6] has as its system Solanum nigrum (SOLNI). The description is as above. The following applies: 312 h, 1,000 g/ha, evaluated after 13 days, 100=total damage, 0=no damage, read-out: Percentage damage caused to weed species, pre-emergence, SOLNI. Summed up:
as §1

Experiment [7] has as its system Amaranthus retroflexus (AMARE). Nature of the experiment: Post-emergence biological efficacy, glasshouse pot test. The following applies: 312 h, 1,000 g/ha, evaluated after 13 days, 100=total damage, 0=no damage, read-out: Percentage damage caused to weed species, post-emergence, AMARE. Summed up: (§2)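 Scores on a 0 (undamaged) to 100 (dead) scale reflect injury 13 days post-treatment of 8-day-old potted plants sprayed at 1000 or 250 g/ha.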

In experiment [8] the test system is Setaria faberi (SETFA). The experiment is described as above. The following applies: 312 h, 1,000 g/ha, evaluated after 13 days, 100=total damage, 0=no damage, read-out: Percentage damage caused to weed species, post-emergence, SETFA. Summed up:
as §2

The subject of experiment [9] is Echinochloa crus-galli (ECHCG). The description is as above. The following applies: 312 h, 1,000 g/ha, evaluated after 13 days, 100=total damage, 0=no damage, read-out: Percentage damage caused to weed species, post-emergence, ECHCG. Summed up:
as §2

The test system of experiment [10] is Alopecurus myosuroides (ALOMY). Described as above. The following applies: 312 h, 1,000 g/ha, evaluated after 13 days, 100=total damage, 0=no damage, read-out: Percentage damage caused to weed species, post-emergence, ALOMY. Summed up: as §2
Experiment [11] concerns Ipomea hederaceae (IPOHE). The description is as above. The following applies: Ipomoea hederacea, 312 h, 1,000 g/ha, evaluated after 13 days, 100=total damage, 0=no damage, read-out: Percentage damage caused to weed species, post-emergence, IPOHE. Summed up: as §2
For experiment [12], the system named is Solanum nigrum (SOLNI). Described as above. Conditions: 312 h, 1,000 g/ha, evaluated after 13 days, 100=total damage, 0=no damage, read-out: Percentage damage caused to weed species, post-emergence, SOLNI. Summed up:
as §2

For `COC(=O)c1nc(Cl)cc(NCc2ccccc2OC)c1Cl` [Compound 73-2, 3,6-Dichloro-4-[(2-methoxyphenyl-methyl)-amino]-pyridine-2-carboxylic acid methyl ester], the pest or weed control at 1000 g/ha in [1] worked out at 100%; in experiment [2], 80%; in [3], 20%; in [4] it was 50%; in experiment [5] it was 100%; in experiment [6], 100%. Also, the pest or weed control at 1000 g/ha in experiment [7] was 100%; in experiment [8], 80%; in [9] it was 40%; in experiment [10], 40%; in experiment [11], 70%; in [12] it was 90%.
For the compound `C=Cc1c(NCc2ncccc2C)cc(Cl)nc1C(=O)OC` [Compound 33-12, 6-Chloro-3-ethenyl-4-[(3-methyl-pyridin-2-ylmethyl)-amino]-pyridine-2-carboxylic acid methyl ester], the pest or weed control at 1000 g/ha is 100% in experiment [1]; 80% in experiment [2]; 80% in experiment [3]; 70% in experiment [4]; 100% in experiment [5]; 100% in experiment [6]. In addition, the pest or weed control at 1000 g/ha was determined as 100% in experiment [7]; 90% in [8]; 80% in experiment [9]; 80% in experiment [10]; 70% in experiment [11]; 90% in experiment [12].
